Columns and labels:
A. brasilliensis (AB) = test: Agar dilution test; type: cell-based, Aspergillus brasiliensis; design: key: (+) indicates growth; (+/−) indicates partial growth; (−) indicates no growth; conditions: Table 4, 24-48 hours
Experimental: (§1) An agar dilution test was carried out for various combinations of saponin extract (Sapindus mukorossi) and Styrax extract (Sumatra benzoin), with maltol extracted from wheat as an additional plant extract, for evaluating the synergistic antimicrobial effect therebetween.
(§2) The agar dilution test was carried out as follows: TSA (tryptic soy agar) or SDA (Sabouraud dextrose agar) media were melted at 99±2° C. and kept warm until seeding (43±2° C.). Into a quota of the growth medium, the maltol and extract were added and stirred. 5 ml of the mixture was poured into each test plate and left to cool and solidify. The plates were then inoculated by defined amounts of test microorganisms (E. coli, S. aureus and P. aeruginosa used on TSA plates, C. albicans and A. brasilliensis used on the SDA plates). The plates were incubated at 25-35° C. for 24-48 hours and then assessed for microorganisms' growth.
(§3) The test results for the combinations of saponin and Styrax extracts with maltol are detailed in Table 4, while the results for the compositions of saponin and Styrax extracts with maltol and citric acid are shown in Table 5. (+) indicates growth, (+/−) indicates partial growth, while (−) indicates no growth. Positive control was obtained by utilizing a commercial preservative. […]

C. albicans (CA) = test: Agar dilution test; type: cell-based, Candida albicans; design: key: (+) indicates growth; (+/−) indicates partial growth; (−) indicates no growth; conditions: Table 4, 24-48 hours
Experimental: as §1, §2, §3

P. aeruginosa (PA) = test: Agar dilution test; type: cell-based, Pseudomonas aeruginosa; design: key: (+) indicates growth; (+/−) indicates partial growth; (−) indicates no growth; conditions: Table 4, 24-48 hours
Experimental: as §1, §2, §3

E. coli (EC) = test: Agar dilution test; type: cell-based, Escherichia coli; design: key: (+) indicates growth; (+/−) indicates partial growth; (−) indicates no growth; conditions: Table 4, 24-48 hours
Experimental: as §1, §2, §3

S. aureus (SA) = test: Agar dilution test; type: cell-based, Staphylococcus aureus; design: key: (+) indicates growth; (+/−) indicates partial growth; (−) indicates no growth; conditions: Table 4, 24-48 hours
Experimental: as §1, §2, §3

[1] = tested on: mixture of S. aureus, S. capitis, S. epidermis and S. hominis; test: Agar plates of cream samples inoculated with skin microbiota mixture (FIGS. 1A-1D); type: cell-based; conditions: cream sample; after 7 hours of incubation
Experimental: FIGS. […] The upper panel of each agar plate was plated with mixture of representative microorganisms to provide a control to each of the experiments.
The mixture of microorganisms represents the natural skin microbiota. […] In comparison, FIGS. 1C and 1D show samples of the cream with the bottom half of the sample containing the compositions 5A and 5B, respectively, and without preservative in the upper half.

Row | SMILES | Agar dilution test result (growth), AB (A. brasilliensis (AB); Teat 2 (duplicate)) | Agar dilution test result (growth), AB (A. brasilliensis (AB); Test 1) | Agar dilution test result (growth), CA (C. albicans (CA); Teat 2 (duplicate)) | Agar dilution test result (growth), CA (C. albicans (CA); Test 1) | Agar dilution test result (growth), PA (P. aeruginosa (PA); Teat 2 (duplicate)) | Agar dilution test result (growth), PA (P. aeruginosa (PA); Test 1) | Agar dilution test result (growth), EC (E. coli (EC); Teat 2 (duplicate)) | Agar dilution test result (growth), EC (E. coli (EC); Test 1) | Agar dilution test result (growth), SA (S. aureus (SA); Teat 2 (duplicate)) | Agar dilution test result (growth), SA (S. aureus (SA); Test 1) | effect on natural skin microbiota on agar plate (FIGS. 1A-1D) [1]
1 | Cc1occc(=O)c1O [ML 0.05%, maltol] | + | + | + | + | +/− | +/− | + | + | +/− | +/− | 
2 | CCCCC(CC)COCC(O)CO (stereo not shown) [commercial synthetic preservative, ethylhexyl glycerin] |  |  |  |  |  |  |  |  |  |  | almost complete elimination of the microbiota
3 | Cc1occc(=O)c1O [ML 0.1%, maltol] | +/− | +/− | − | − | − | − | + | + | − | − | 
4 | Cc1occc(=O)c1O [ML 0.2%, maltol] | − | − | − | − | − | − | − | − | − | − | 
5 | Cc1occc(=O)c1O [ML 0.02%, maltol] | + | + | + | + | + | + | + | + | + | + | 
6 | Cc1occc(=O)c1O [ML 0.04%, maltol] | + | + | +/− | +/− | + | + | + | + | +/− | +/− | 
7 | Cc1occc(=O)c1O [ML 0.08%, maltol] | +/− | +/− | − | − | − | − | +/− | +/− | + | + | 

— patent US20250114420A1, “ANTIMICROBIAL NATURAL COMPOSITIONS” (BIO-ACTIVES SYNERGIO LTD, priority 2022, published 2025)
